{
  "source": "patent US11628208B2",
  "about": "“System and method for microneedle delivery of microencapsulated vaccine and bioactive proteins” (priority 2015, dated 2023)",
  "molecules": {"B1": {"name": "Flagellin: flagellin from Salmonella typhimurium, adjuvant in microparticles (protein, UniProt P06179 2-495, looked up)", "Flagellin": "AQVINTNSLSLLTQNNLNKSQSALGTAIERLSSGLRINSAKDDAAGQAIANRFTANIKGLTQASRNANDGISIAQTTEGALNEINNNLQRVRELAVQSANSTNSQSDLDSIQAEITQRLNEIDRVSGQTQFNGVKVLAQDNTLTIQVGANDGETIDIDLKQINSQTLGLDTLNVQQKYKVSDTAATVTGYADTTIALDNSTFKASATGLGGTDQKIDGDLKFDDTTGKYYAKVTVTGGTGKDGYYEVSVDKTNGEVTLAGGATSPLTGGLPATATEDVKNVQVANADLTEAKAALTAAGVTGTASVVKMSYTDNNGKTIDGGLAVKVGDDYYSATQNKDGSISINTTKYTADDGTSKTALNKLGGADGKTEVVSIGGKTYAASKAEGHNFKAQPDLAEAAATTTENPLQKIDAALAQVDTLRSDLGAVQNRFNSAITNLGNTVNNLTSARSRIEDSDYATEVSNMSRAQILQQAGTSVLAQANQVPQNVLSLLR"}},
  "key": {"RAW 264.7 cells": {"tested_on": "RAW 264.7 cells", "test": "MTS cell cytotoxicity assay", "assay_type": "cell-based, mouse", "conditions": "10 mg/mL, positive control, relative to DMEM-treated cells", "method": "Particles were tested for their cytotoxic properties using MTS assay (Promega), which determines cell viability in culture. RAW 264.7 cells (mouse leukemic monocyte macrophage cell line) were grown in DMEM medium, supplemented with 10% fetal bovine serum and 1% antibiotic in a cell culture flask. The cell culture media was then removed and cells were treated with 2 mL trypsin-EDTA. Thus, cells were detached from the cell culture flask and suspended in 1 mL complete DMEM media. Cell count of the resulting suspension was determined by trypan blue dye exclusion method using Bio-Rad counter (TC10™ Automated cell counter, Bio-Rad, CA). Cell suspension equivalent to 10,000 cells was plated in a 96 well cell culture plate and complete DMEM media was added to attain a volume of 100 μL per well. Plate was incubated for 24 h and various concentrations (2, 1, 0.5, 0.25, 0.125, 0.0625 mg/mL) of 4T07 antigen loaded particles were added to wells (n=3 for each concentration) and again incubated for 24 h. Cells treated with DMEM media alone were used as a negative control and cells treated with benzalkonium chloride (10 mg/ml) were chosen as a positive control (n=3 each). […] The plate was incubated for 4 h at 37° C. in a humidified, 5% CO2 chamber and absorbance was recorded at 490 nm using a UV plate reader (BioTek instruments Inc., VT)."}, "dendritic cells (DC 2.4)": {"tested_on": "dendritic cells (DC 2.4)", "test": "Nitric oxide release from dendritic cells exposed to RSV F-VLP vaccine", "assay_type": "cell-based", "method": "For in vitro analysis of immunogenicity of the F-VLP, dendritic cells (DC 2.4) were cultured and exposed to varying concentrations of the vaccine. The optimal concentration was then used to screen four different adjuvants (Poly I:C, Alum, MPL and MF59). Evaluation of innate and adaptive immunity was done using the nitric oxide assay and expression of cell surface markers using the C6 flow cytometer.\na. Following exposure to an antigen, dendritic cells (DC 2.4) are known to release nitric oxide and express cell surface markers that signal CD4+ Helper T cells and/or CD8+ Cytotoxic T cells."}, "[1]": {"tested_on": "CD4+ and CD8+ T cell populations", "test": "CD4/CD8 population analysis of splenocytes incubated with stimulated APCs", "assay_type": "cell-based, Swiss Webster mice", "conditions": "5 days", "method": "The spleens were collected from the same mice that were harvested APCs from the intraperitoneal cavity, and the single-cell suspensions of the spleens were introduced into the stimulated APCs with a ratio of 1:1 (splenocytes:APCs). After a five-day incubation at 37° C. and 5% CO2, the splenocytes were harvested from the supernatant, washed with Hank's balanced salt solution and labeled with anti-mouse CD4 PE and anti-mouse CD8a FITC. The cells were analyzed for CD4^+ and CD8^+ T cell populations using BD Accuri® C6 flow cytometer."}, "APCs": {"tested_on": "APCs", "test": "Nitric oxide assay (Greiss) on harvested APCs", "assay_type": "cell-based, Swiss Webster mice", "conditions": "2.5 μg adjuvant in MP + 2.5 μg M2p in MP, 20 hours", "method": "5 Sodium thioglycolate was injected into the intraperitoneal cavity of Swiss Webster (6-8 week old) with the amount of 40 mg per mouse to recruit the APCs (13)(14). After four days, these mice were euthanized and 5.0 mL of PBS was injected intraperitoneally into each mouse to harvest cells from the cavity. Collected cells were washed with PBS twice before adding the complete RPMI media. After these APCs adhered to the bottom of a T75 flask, the supernatant was removed and complete RPMI media was added in the presence of ConA ([…]).\nThe harvested APCs (5×10^4 cells/well) were seeded in Dulbecco's complete media in a 96 well plate. The soluble and particulate vaccines (with and without adjuvants) were introduced to the APCs with the same amount of antigen (2.5 μg) and adjuvant (2.5 μg). The induced APCs were incubated for 20 hours at 37° C. % CO2. Supernatants were collected and the amount of nitric oxide released in each group was analyzed using the Greiss chemical method (equal volumes of 1% sulphanilamide and 0.1% N-(1-naphthylethylenediamine)). The plate was read at a wavelength of 540 nm (15)."}},
  "data": [
    {"molecule": "CCCCCCCCCCCCC[N+](C)(C)Cc1ccccc1", "note": "[benzalkonium chloride]", "values": [
      {"measurement": "cell viability", "setting": "RAW 264.7 cells", "value": 21, "unit": "%"}
    ]},
    {"molecule": "Poly I:C", "values": [
      {"measurement": "amount of nitric oxide released, vaccine with adjuvant compared to vaccine alone", "setting": "dendritic cells (DC 2.4)", "value": "much higher compared to vaccine alone"}
    ]},
    {"molecule": "monophospholyl lipid A [MPL]", "values": [
      {"measurement": "CD8+ T cell population compared to M2p MP treated group", "setting": "[1]", "value": "elevated"}
    ]},
    {"molecule": "B1", "values": [
      {"measurement": "nitric oxide level compared to M2p MP group", "setting": "APCs", "value": "significantly higher"},
      {"measurement": "CD4+ T cell population compared to M2p MP treated group", "setting": "[1]", "value": "elevated CD4+ T cell population"}
    ]}
  ]
}
